Laboratory results from patent publication US7384959B2, “Treatment of convulsive states” (priority 1999, dated 2008).
Marks after values point to notes of the source that are not given here.

What was measured:
[1] = tested on: rat; experiment: barbital interaction (sleep induction) test; assay type: in vivo; settings: for NUMBER OF RATS SLEEPING: 10 rats per group; for SLEEP DURATION mean ± s.e.m.: maximum 6 hours after barbital injection
Description: (§1) The following Tables report the results of the Irwin, PTZ and barbital interaction (sleep induction) tests. Description of these tests may be found in Psychopharmacologica, 13:222-257 (1968), Krall et al, Epilepsia 19:409-428 (1978), and Simon et al, J. Pharmacol, Paris 13:241-252 (1982). See also Roux et al, Phoenix international Pharmacology Reports Nos. D30.2061/2 and D99.021/2.
In Table 3, the following apply: Student's t Test: NS=Not Significant; *=p<0.05; **=p<0.01; ***=<0.001 Fisher's Exact Test: (number of rats sleeping) No indication=Not Significant; +=p<0.05; ++=p<0.01; +++=p<0.001 • (#): maximum=6 hours after barbital injection (taken 50 minutes after barbital injection).

[2] = tested on: attention-deficit hyperactivity disorder (ADHD); settings: Patrick et al 1987; cited from earlier work
[3] = tested on: rat; experiment: Pentylenetetrazole (PTZ) Seizure Test; assay type: in vivo; settings: for NUMBER OF CLONIC CONVULSIONS number of rats / NUMBER OF DEATHS number of rats / NUMBER OF TONIC CONVULSIONS number of rats: 10 rats per group; for NUMBER OF CLONIC CONVULSIONS number of rats / NUMBER OF DEATHS number of rats / NUMBER OF TONIC CONVULSIONS number of rats / NUMBER OF CLONIC CONVULSIONS % antagonism / NUMBER OF DEATHS % antagonism / NUMBER OF TONIC CONVULSIONS % antagonism: observed during 60 minutes; for LATENCY TO CLONIC CONVULSIONS % change from control / LATENCY TO CLONIC CONVULSIONS mean ± s.e.m. / LATENCY TO DEATHS % change from control / LATENCY TO DEATHS mean ± sem. / LATENCY TO TONIC CONVULSIONS % change from control / LATENCY TO TONIC CONVULSIONS mean ± sem.: rat; for anticonvulsant activity in the PTZ Seizure Test: animal model, delivered subcutaneously
Description: as §1
Table 2a reports mean results based on animals showing the symptoms (minimum=3 animals). Table 2b reports results observed during 60 minutes. In these Tables: Student's t Test: NS=Not Significant; *=p<0.05; ** p<0.01; ***=p<0.001 Fisher's Exact Test: No indication=Not Significant; **=p<0.01; ***=p<0.001

[4] = tested on: mouse; experiment: liver damage (plasma alanine aminotransferase, microscopic examination for hepatic necrosis); assay type: in vivo
Procedure: (§2) At very high doses, some inhibition of cytochrome P450 sub-types C8/9, 2C18/19 and 2D6 was found, but the concentrations required to inhibit enzyme activities (100 μM) were much greater than the maximum concentrations likely to be found in vivo and are therefore not likely to be clinically relevant.

[5] = target: cytochrome P450 sub-type 3A4 (Homo sapiens, UniProt P08684); experiment: effect on cytochrome P450 activity; assay type: in vitro ADME
Chain of cytochrome P450 sub-type 3A4 (P08684 whole entry): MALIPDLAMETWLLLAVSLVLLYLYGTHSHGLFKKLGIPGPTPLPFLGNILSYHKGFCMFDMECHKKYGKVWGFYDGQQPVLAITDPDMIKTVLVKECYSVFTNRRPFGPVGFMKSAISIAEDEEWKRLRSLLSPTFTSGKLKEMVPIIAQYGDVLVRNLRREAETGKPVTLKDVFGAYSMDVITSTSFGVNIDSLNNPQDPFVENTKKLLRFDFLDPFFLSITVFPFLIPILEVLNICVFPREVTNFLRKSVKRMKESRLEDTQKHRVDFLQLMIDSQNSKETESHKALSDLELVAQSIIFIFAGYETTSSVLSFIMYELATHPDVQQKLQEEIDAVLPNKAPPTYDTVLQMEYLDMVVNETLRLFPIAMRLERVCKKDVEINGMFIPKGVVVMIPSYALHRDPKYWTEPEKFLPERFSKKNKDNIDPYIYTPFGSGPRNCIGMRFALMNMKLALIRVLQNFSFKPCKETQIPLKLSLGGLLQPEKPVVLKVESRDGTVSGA
Procedure: as §2

[6] = target: T1, cytochrome P450 sub-type 1A2 (Homo sapiens, UniProt P05177); experiment: effect on cytochrome P450 activity; assay type: in vitro ADME
T1 sequence (P05177 1-516): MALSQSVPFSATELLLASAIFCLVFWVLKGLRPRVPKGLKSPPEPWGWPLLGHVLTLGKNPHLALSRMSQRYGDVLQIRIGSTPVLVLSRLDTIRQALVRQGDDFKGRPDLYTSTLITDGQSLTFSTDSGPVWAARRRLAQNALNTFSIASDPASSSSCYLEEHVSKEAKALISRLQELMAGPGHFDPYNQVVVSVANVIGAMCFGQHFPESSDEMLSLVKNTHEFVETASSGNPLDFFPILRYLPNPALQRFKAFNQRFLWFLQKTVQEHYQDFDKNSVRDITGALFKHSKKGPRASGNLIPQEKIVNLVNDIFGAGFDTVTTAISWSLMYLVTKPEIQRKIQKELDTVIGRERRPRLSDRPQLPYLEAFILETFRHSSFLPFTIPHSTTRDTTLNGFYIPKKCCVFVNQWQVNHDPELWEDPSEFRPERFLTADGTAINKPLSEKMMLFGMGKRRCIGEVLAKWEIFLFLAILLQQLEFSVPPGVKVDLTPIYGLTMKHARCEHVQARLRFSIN
Procedure: as §2

[7] = target: cytochrome P450 sub-type 2D6 (Homo sapiens, UniProt P10635); experiment: effect on cytochrome P450 activity; assay type: in vitro ADME; settings: some inhibition at very high doses
Chain of cytochrome P450 sub-type 2D6 (P10635 whole entry): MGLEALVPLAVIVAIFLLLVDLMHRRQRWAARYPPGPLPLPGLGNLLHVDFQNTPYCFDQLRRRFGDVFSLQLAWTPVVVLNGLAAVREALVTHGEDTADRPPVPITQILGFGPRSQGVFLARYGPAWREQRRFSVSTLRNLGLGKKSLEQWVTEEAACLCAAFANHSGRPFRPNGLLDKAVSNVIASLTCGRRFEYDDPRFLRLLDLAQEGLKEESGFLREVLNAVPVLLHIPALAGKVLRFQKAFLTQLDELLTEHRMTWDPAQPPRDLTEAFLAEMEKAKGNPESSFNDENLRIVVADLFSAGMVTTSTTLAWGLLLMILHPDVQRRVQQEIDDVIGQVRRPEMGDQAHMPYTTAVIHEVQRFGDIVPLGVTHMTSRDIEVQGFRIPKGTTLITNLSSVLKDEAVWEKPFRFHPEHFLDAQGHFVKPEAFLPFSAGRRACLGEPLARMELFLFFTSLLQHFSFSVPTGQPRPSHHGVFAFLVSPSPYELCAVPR
Procedure: as §2

[8] = tested on: cytochrome P450 sub-type C8/9; experiment: effect on cytochrome P450 activity; assay type: in vitro ADME; settings: some inhibition at very high doses
Procedure: as §2

[9] = target: cytochrome P450 sub-type 2E1 (Homo sapiens, UniProt P05181); experiment: effect on cytochrome P450 activity; assay type: in vitro ADME
Chain of cytochrome P450 sub-type 2E1 (P05181 whole entry): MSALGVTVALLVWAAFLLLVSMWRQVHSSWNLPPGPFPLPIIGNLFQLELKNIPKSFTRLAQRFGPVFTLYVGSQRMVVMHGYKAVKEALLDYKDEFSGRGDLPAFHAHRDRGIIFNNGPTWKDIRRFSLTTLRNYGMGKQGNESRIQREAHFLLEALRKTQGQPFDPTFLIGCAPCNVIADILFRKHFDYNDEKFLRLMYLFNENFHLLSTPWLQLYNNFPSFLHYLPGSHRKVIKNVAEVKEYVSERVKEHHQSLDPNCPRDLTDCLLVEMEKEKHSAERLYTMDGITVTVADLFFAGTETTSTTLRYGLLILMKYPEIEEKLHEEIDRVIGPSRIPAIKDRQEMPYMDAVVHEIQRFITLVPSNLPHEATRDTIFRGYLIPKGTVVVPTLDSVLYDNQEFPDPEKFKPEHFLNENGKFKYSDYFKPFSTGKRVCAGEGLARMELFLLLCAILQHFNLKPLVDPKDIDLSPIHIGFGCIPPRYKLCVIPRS
Procedure: as §2

[10] = tested on: cytochrome P450 sub-type 2C18/19; experiment: effect on cytochrome P450 activity; assay type: in vitro ADME; settings: some inhibition at very high doses
Procedure: as §2

[11] = cited from earlier work

## COC(=O)[C@@H](c1ccccc1)[C@@H]1CCCCN1 [l-MPH, l-threo-Methylphenidate]
[1]; 0.5 mg/kg s.c. −30 min
  SLEEP DURATION % change from control: +3%
  NUMBER OF RATS SLEEPING: 9
  SLEEP DURATION mean ± s.e.m.: 63.8 ± 18.5 NS min
[1]; 2 mg/kg s.c. −30 min
  SLEEP DURATION % change from control: −85%
  NUMBER OF RATS SLEEPING: 4 +
  SLEEP DURATION mean ± s.e.m.: 9.5 ± 6.4** min
[1]; 4 mg/kg s.c. −30 min
  SLEEP DURATION % change from control: −93%
  NUMBER OF RATS SLEEPING: 6
  SLEEP DURATION mean ± s.e.m.: 4.3 ± 2.3*** min
[1]; 8 mg/kg s.c. −30 min
  SLEEP DURATION % change from control: −79%
  NUMBER OF RATS SLEEPING: 1 +++
  SLEEP DURATION mean ± s.e.m.: 13.3 ± 13.3 min
[1]; rat, in vivo
  effect on barbital-induced sleep: antagonise barbital-induced sleep
[2]
  pharmacological action in the treatment of ADHD: no action on the part of the l-enantiomer (l-MPH) has been detected
[3]; 8 mg/kg s.c. −30 min
  NUMBER OF CLONIC CONVULSIONS number of rats: 10
  NUMBER OF DEATHS number of rats: 10
  NUMBER OF TONIC CONVULSIONS number of rats: 10
  NUMBER OF CLONIC CONVULSIONS % antagonism: 0%
  NUMBER OF DEATHS % antagonism: 0%
  NUMBER OF TONIC CONVULSIONS % antagonism: 0%
  LATENCY TO CLONIC CONVULSIONS % change from control: +38%
  LATENCY TO CLONIC CONVULSIONS mean ± s.e.m.: 756.0 ± 105.0 NS sec
  LATENCY TO DEATHS % change from control: +20%
  LATENCY TO DEATHS mean ± sem.: 1566.1 ± 199.9 NS sec
  LATENCY TO TONIC CONVULSIONS % change from control: +23%
  LATENCY TO TONIC CONVULSIONS mean ± sem.: 1443.0 ± 198.2 NS sec
[3]; 16 mg/kg s.c. −30 min
  NUMBER OF CLONIC CONVULSIONS number of rats: 9
  NUMBER OF DEATHS number of rats: 7
  NUMBER OF TONIC CONVULSIONS number of rats: 8
  NUMBER OF CLONIC CONVULSIONS % antagonism: 10%
  NUMBER OF DEATHS % antagonism: 30%
  NUMBER OF TONIC CONVULSIONS % antagonism: 20%
  LATENCY TO CLONIC CONVULSIONS % change from control: +99%
  LATENCY TO CLONIC CONVULSIONS mean ± s.e.m.: 1086.7 ± 213.6* sec
  LATENCY TO DEATHS % change from control: +35%
  LATENCY TO DEATHS mean ± sem.: 1757.1 ± 209.8* sec
  LATENCY TO TONIC CONVULSIONS % change from control: +53%
  LATENCY TO TONIC CONVULSIONS mean ± sem.: 1785.0 ± 292.2* sec
[3]; 32 mg/kg s.c. −30 min
  NUMBER OF CLONIC CONVULSIONS number of rats: 10
  NUMBER OF DEATHS number of rats: 3++
  NUMBER OF TONIC CONVULSIONS number of rats: 3++
  NUMBER OF CLONIC CONVULSIONS % antagonism: 0%
  NUMBER OF DEATHS % antagonism: 70%
  NUMBER OF TONIC CONVULSIONS % antagonism: 70%
  LATENCY TO CLONIC CONVULSIONS % change from control: +226%
  LATENCY TO CLONIC CONVULSIONS mean ± s.e.m.: 1782.0 ± 161.7*** sec
  LATENCY TO DEATHS % change from control: +150%
  LATENCY TO DEATHS mean ± sem.: 3260.0 ± 121.7*** sec
  LATENCY TO TONIC CONVULSIONS % change from control: +162%
  LATENCY TO TONIC CONVULSIONS mean ± sem.: 3070.0 ± 164.6*** sec
[3]
  anticonvulsant activity in the PTZ Seizure Test: has anticonvulsant potential
[3]; listed as l-enantiomer
  anticonvulsant activity in the PTZ Seizure Test: possess anticonvulsant activity
[4]
  liver damage as assessed by increased plasma level of alanine aminotransferase and microscopic examination for hepatic necrosis: not to be linked with liver damage
[5]
  effect on activity of cytochrome P450 sub-type 3A4: little or no effect
[6]
  effect on activity of cytochrome P450 sub-type 1A2: little or no effect
[7]
  concentration required to inhibit enzyme activity, cytochrome P450 sub-type 2D6: 100 µM
[8]
  concentration required to inhibit enzyme activity, cytochrome P450 sub-type C8/9: 100 µM
[9]
  effect on activity of cytochrome P450 sub-type 2E1: little or no effect
[10]
  concentration required to inhibit enzyme activity, cytochrome P450 sub-type 2C18/19: 100 µM
[11]
  systemic availability following oral dosing: very little l-MPH enters the circulation or becomes available to the brain
